Assay results from US8198273B2, “Compounds and methods for kinase modulation, and indications therefor” (Plexxikon Inc., priority 2009, dated 2012).

Experiments:
c-Raf-1 = c-Raf-1 (Homo sapiens, UniProt P04049); assay: c-Raf-1 biochemical kinase inhibition (AlphaScreen, biotin-MEK1 substrate); conditions: 100 μM ATP
Procedure, shortened: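 Eight-point compound series (made from a 0.1 mM DMSO stock) tested against each Raf enzyme with biotin-MEK1 substrate and 100 μM final ATP.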

[1] = tested on: SW620 colon adenocarcinoma cells (wild-type B-RAF); assay: SW620 cell growth inhibition (ATPlite); format: cell-based; conditions: Homo sapiens, SW-620, 72 h; SW620, 3 days incubation
Procedure, shortened: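 ATPlite luminescence, taken as a cell-number measure, gave IC50 values after a 3-day 37° C, 5% CO2 incubation. Compounds were tested as 8-point threefold titrations, highest final concentration 10 μM, added to cells seeded the day before.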

CYP3A4(BQ) = CYP3A4(BQ) (Homo sapiens, UniProt P08684); assay: CYP3A4(BQ) inhibition (fluorescent substrate); format: in vitro ADME; conditions: read-out: Cyp IC50 3A4(BQ)
CYP3A4(BQ), sequence (P08684 whole entry): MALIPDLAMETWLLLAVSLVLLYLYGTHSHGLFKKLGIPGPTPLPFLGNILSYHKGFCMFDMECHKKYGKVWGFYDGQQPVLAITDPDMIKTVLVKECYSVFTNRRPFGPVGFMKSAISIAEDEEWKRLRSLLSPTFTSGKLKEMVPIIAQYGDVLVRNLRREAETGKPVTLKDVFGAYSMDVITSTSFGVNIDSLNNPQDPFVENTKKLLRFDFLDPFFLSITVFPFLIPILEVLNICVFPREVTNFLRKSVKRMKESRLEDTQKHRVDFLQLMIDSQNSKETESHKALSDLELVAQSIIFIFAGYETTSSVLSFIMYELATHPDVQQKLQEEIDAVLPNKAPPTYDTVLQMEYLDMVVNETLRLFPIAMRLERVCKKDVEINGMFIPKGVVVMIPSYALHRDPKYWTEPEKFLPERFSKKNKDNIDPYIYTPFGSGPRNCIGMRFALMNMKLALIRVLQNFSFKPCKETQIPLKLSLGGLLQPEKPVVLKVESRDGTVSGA
Procedure, shortened: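 Compound, from a 100 mM DMSO stock and diluted 1:1 over 10 points in co-factor mix, was incubated at 37° C with enzyme and a known substrate. Decrease in fluorescent product against concentration gave the IC50.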

c-Raf-1, sequence (P04049 whole entry): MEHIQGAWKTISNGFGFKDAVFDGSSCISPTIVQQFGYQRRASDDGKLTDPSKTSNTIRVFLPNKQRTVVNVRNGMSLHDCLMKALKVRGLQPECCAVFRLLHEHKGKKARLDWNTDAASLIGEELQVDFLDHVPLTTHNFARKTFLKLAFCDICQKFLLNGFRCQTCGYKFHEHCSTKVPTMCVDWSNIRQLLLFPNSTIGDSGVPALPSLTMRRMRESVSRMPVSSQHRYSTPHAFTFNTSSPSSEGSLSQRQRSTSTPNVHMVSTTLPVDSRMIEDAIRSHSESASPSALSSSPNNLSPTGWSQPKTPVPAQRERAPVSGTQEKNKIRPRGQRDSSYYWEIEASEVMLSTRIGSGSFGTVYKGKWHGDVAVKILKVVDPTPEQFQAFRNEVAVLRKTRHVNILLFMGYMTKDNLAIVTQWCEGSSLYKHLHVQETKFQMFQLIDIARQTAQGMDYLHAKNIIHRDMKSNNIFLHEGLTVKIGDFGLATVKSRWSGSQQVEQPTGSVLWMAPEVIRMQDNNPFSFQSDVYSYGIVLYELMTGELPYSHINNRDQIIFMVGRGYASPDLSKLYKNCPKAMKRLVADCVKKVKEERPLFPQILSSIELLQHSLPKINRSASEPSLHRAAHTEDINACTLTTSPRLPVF

Compound | IC50 (c-Raf-1) | IC50 [1] | IC50 (CYP3A4(BQ))
N#Cc1cnc2[nH]cc(C(=O)c3cccc(NS(=O)(=O)c4ccccc4F)c3F)c2c1 [P-2051, N-[3-(5-Cyano-1H-pyrrolo[2,3-b]pyridine-3-carbonyl)-2-fluoro-phenyl]-2-fluoro-benzenesulfonamide] | < 0.1 µM | > 10 µM | > 10 µM
COc1ccnc2[nH]cc(C(=O)c3c(F)ccc(NS(=O)(=O)c4cccnc4)c3F)c12 [P-2073, Pyridine-3-sulfonic acid [2,4-difluoro-3-(4-methoxy-1H-pyrrolo[2,3-b]pyridine-3-carbonyl)-phenyl]-amide] | < 0.01 µM | > 10 µM | < 5 µM
COc1ccnc2[nH]cc(C(=O)c3c(F)ccc(NS(=O)(=O)c4c(F)cccc4F)c3F)c12 [P-2031, N-[2,4-Difluoro-3-(4-methoxy-1H-pyrrolo[2,3-b]pyridine-3-carbonyl)-phenyl]-2,6-difluoro-benzenesulfonamide] | < 0.1 µM | > 10 µM | > 10 µM

The remaining lines, values ahead:

IC50 (c-Raf-1) | IC50 [1] | IC50 (CYP3A4(BQ)) | Compound
< 0.01 µM | < 10 µM | > 10 µM | CCCS(=O)(=O)Nc1ccc(F)c(C(=O)c2c[nH]c3ncc(-c4ccc(S(=O)(=O)N5CCOCC5)cc4)cc23)c1F [P-2166, Propane-1-sulfonic acid (2,4-difluoro-3-{5-[4-(morpholine-4-sulfonyl)-phenyl]-1H-pyrrolo[2,3-b]pyridine-3-carbonyl}-phenyl)-amide]
< 0.01 µM | > 10 µM | < 5 µM | CCCS(=O)(=O)Nc1ccc(F)c(C(=O)c2c[nH]c3ncc(-c4cnc(SC)nc4)cc23)c1F [P-2189, Propane-1-sulfonic acid {2,4-difluoro-3-[5-(2-methylsulfanyl-pyrimidin-5-yl)-1H-pyrrolo[2,3-b]pyridine-3-carbonyl]-phenyl}-amide]
